Experimental data taken from patent US7645864B2, “Erythromycin derivative having novel crystal structures and processes for their production” (Chugai Seiyaku Kabushiki Kaisha, priority 2001, dated 2010).

assay: not given; conditions: reported in JP 9-100291 A; cited from earlier work

| Compound | Stability compared with the A-type and C-type crystals |
| --- | --- |
| CC[C@H]1OC(=O)[C@H](C)[C@@H](O[C@H]2C[C@@](C)(OC)[C@@H](O)[C@H](C)O2)[C@H](C)[C@@H](O[C@@H]2O[C@H](C)C[C@H](N(C)C(C)C)[C@H]2O)[C@]2(C)CC(C)=C(O2)[C@H](C)C(=O)[C@]1(C)OC [D-type crystal] | superior in stability |

assay: Average particle size by particle size distribution analyzer; format: physicochemical; conditions: D-form crystal
Text: The content of residual solvent may be determined in a known manner, for example, by gas chromatography. The details on gas chromatography can be found in the Japanese Pharmacopoeia, 13th Edition, published by Hirokawa Publishing Co. (1996) pp. B83-B94, the Japanese Pharmacopoeia, 14th Edition, published by Hirokawa Publishing Co. (2001) pp. B98-B114 and elsewhere. In general, gas chromatography will cause a measurement error falling within around ±1%. The compound of the present invention can also be determined for its average particle size in a known manner or using various devices that are commercially available, such as a dry particle size distribution analyzer. In general, such a particle size distribution analyzer will cause a measurement error falling within around ±5%.
In these examples and comparison examples, X-ray diffractometry was performed using a powder X-ray diffractometer RINT-1100 (Rigaku), the content of residual solvent was determined using a gas chromatograph GC-17A (Shimadzu Corp.), and the average particle size was determined using a particle size distribution analyzer RPS-95 (Seishin Enterprise Co., Ltd.).

| Compound | Particle size (average particle size) |
| --- | --- |
| CC[C@H]1OC(=O)[C@H](C)[C@@H](O[C@H]2C[C@@](C)(OC)[C@@H](O)[C@H](C)O2)[C@H](C)[C@@H](O[C@@H]2O[C@H](C)C[C@H](N(C)C(C)C)[C@H]2O)[C@]2(C)CC(C)=C(O2)[C@H](C)C(=O)[C@]1(C)OC [Comparison Example 1, reference compound] | 82 μm |
| CC[C@H]1OC(=O)[C@H](C)[C@@H](O[C@H]2C[C@@](C)(OC)[C@@H](O)[C@H](C)O2)[C@H](C)[C@@H](O[C@@H]2O[C@H](C)C[C@H](N(C)C(C)C)[C@H]2O)[C@]2(C)CC(C)=C(O2)[C@H](C)C(=O)[C@]1(C)OC [Example 3] | 197 μm |
| CC[C@H]1OC(=O)[C@H](C)[C@@H](O[C@H]2C[C@@](C)(OC)[C@@H](O)[C@H](C)O2)[C@H](C)[C@@H](O[C@@H]2O[C@H](C)C[C@H](N(C)C(C)C)[C@H]2O)[C@]2(C)CC(C)=C(O2)[C@H](C)C(=O)[C@]1(C)OC [Example 8] | 185 μm |
| CC[C@H]1OC(=O)[C@H](C)[C@@H](O[C@H]2C[C@@](C)(OC)[C@@H](O)[C@H](C)O2)[C@H](C)[C@@H](O[C@@H]2O[C@H](C)C[C@H](N(C)C(C)C)[C@H]2O)[C@]2(C)CC(C)=C(O2)[C@H](C)C(=O)[C@]1(C)OC [Example 2] | 302 μm |
| CC[C@H]1OC(=O)[C@H](C)[C@@H](O[C@H]2C[C@@](C)(OC)[C@@H](O)[C@H](C)O2)[C@H](C)[C@@H](O[C@@H]2O[C@H](C)C[C@H](N(C)C(C)C)[C@H]2O)[C@]2(C)CC(C)=C(O2)[C@H](C)C(=O)[C@]1(C)OC [Comparison Example 2, reference compound] | 61 μm |
| CC[C@H]1OC(=O)[C@H](C)[C@@H](O[C@H]2C[C@@](C)(OC)[C@@H](O)[C@H](C)O2)[C@H](C)[C@@H](O[C@@H]2O[C@H](C)C[C@H](N(C)C(C)C)[C@H]2O)[C@]2(C)CC(C)=C(O2)[C@H](C)C(=O)[C@]1(C)OC [Example 7] | 163 μm |
